{
  "source": "patent US20210009583A1",
  "about": "“DEUTERATED IMIDAZOPYRIDINES” (UNIVERSITY OF NOTRE DAME DU LAC, priority 2018, published 2021)",
  "key": {"[1]": {"assay": "Body weight at gross necropsy after 4 weeks of treatment (chronic model)", "type": "in vivo, Balb/c mouse", "details": "individual mice", "method": "When evaluated in the “Chronic Balb/c mouse model” of M. tuberculosis infection by the method of Lenaerts, A. J., et. al. 2005. Preclinical testing of the nitroimidazopyran PA-824 for activity against M. tuberculosis in a series of in vitro and in vivo models. AAC. 49(6):2294-301. ND-012101 at 200 mg/kg and ND-012101(100 mg/kg)+ABT (100 mg/kg) both achieved 100% mouse survival after 4 weeks of oral dosing."}, "[2]": {"assay": "Single dose pharmacokinetic study after oral administration, with and without ABT pre-dosing", "type": "in vivo, female Balb/c mice", "method": "Based on MIC and acute toxicity data, two compounds ND-011176 and a deuterated analog ND-012101 were selected for evaluation in a single dose pharmacokinetic study (with and without pre-dosing of 1-Aminobenzotriazole, ABT) after oral administration to female Balb/c mice.\nAll animals were administered with the prepared test article via oral gavage at a target dose level of 200 mg/kg and at the dose volume detailed in the table 1 below. Each animal in Groups 2, 4, 6, 8 and 10 received a dose of ABT (100 mg/kg) via oral gavage two hours prior to Test Article administration.\nWhole blood samples (0.1 mL each) were collected at the first time point via submandibular vein (SMV), or an appropriate peripheral vein if it was necessary. Up to 0.5 mL of whole blood was collected at terminal blood collection via intra cardiac puncture (ICP). For animals 1-3 from each of the 10 Groups, blood samples were collected at 0.5 and 4 hours after oral dosing. […]\nThe plasma samples and dose formulation samples were analyzed by the Testing Facility to determine the concentration of the test article using LC-MS/MS. PK parameters were estimated from the plasma concentration-time data by standard non-compartmental methods utilizing suitable analysis software."}, "[3]": {"test_system": "M. tuberculosis", "assay": "Chronic Balb/c mouse model of M. tuberculosis infection", "type": "in vivo", "details": "for CFU drop (bacteriostatic activity) / Mouse survival: 4 weeks of oral dosing; for Spleen, gross necropsy observation: after 4 weeks of treatment, individual mice; for Lung Log10 CFU ± SEM / Spleen Log10 CFU ± SEM / Log reduction vs CTL (Lg) / Log reduction vs CTL (Sp): 4 Week Treatment; for Log reduction vs CTL (Lg): lung; for Log reduction vs CTL (Sp): spleen"}, "[4]": {"details": "5 h (mean of the \"8\" and \"12\" TP samples taken before euthanasia), PO 200 mg/kg + 100 mg/kg ABT"}, "[5]": {"details": "female, Balb/c, mouse, in vivo, po, 200 mg/kg"}, "[6]": {"details": "mouse, in vivo, female Balb/c mice, single oral dose 200 mg/kg, no ABT"}},
  "note": "Values joined by “and” are separate entries in the source; they are usually repeats but may differ in a detail not shown here. Identical values can stand only once. “Also recorded” adds a separate entry of the source. Like-named read-outs stand apart in the source and are kept apart here.",
  "data": [
    {"smiles": "[2H]c1c(C([2H])([2H])[2H])c([2H])n2c(C(=O)NCc3ccc(C(F)(F)F)cc3)c(C)nc2c1[2H]", "note": "[ND-012101]", "values": [
      {"measurement": "Weight", "setting": "[1]; Group 3, ND-012101 + ABT", "value": "20.4 (2×) and 20.8 and 20.0 and 20.5 and 18.6"},
      {"measurement": "Weight", "setting": "[1]; Group 6, ND-012101 alone", "value": "21.5 (2×) and 20.7 and 20.3 and 19.9 and 20.8"},
      {"measurement": "Drug plasma concentration, individual mice", "setting": "[2]; 0.5 h, PO 200 mg/kg + 100 mg/kg ABT", "value": "22700 ng/mL and 19100 ng/mL"},
      {"measurement": "Drug plasma concentration, individual mice", "setting": "[2]; 0.5 h, PO 200 mg/kg, no ABT, 200 mg/kg", "value": "23100 ng/mL and 19900 ng/mL"},
      {"measurement": "Drug plasma concentration, individual mice", "setting": "[2]; 2 h, PO 200 mg/kg + 100 mg/kg ABT", "value": "37700 ng/mL and 35500 ng/mL"},
      {"measurement": "Drug plasma concentration, individual mice", "setting": "[2]; 2 h, PO 200 mg/kg, no ABT, 200 mg/kg", "value": "7900 ng/mL and 3080 ng/mL and 4590 ng/mL"},
      {"measurement": "Drug plasma concentration, individual mice", "setting": "[2]; 4 h, PO 200 mg/kg + 100 mg/kg ABT", "value": "47200 ng/mL and 35000 ng/mL"},
      {"measurement": "Drug plasma concentration, individual mice", "setting": "[2]; 4 h, PO 200 mg/kg, no ABT, 200 mg/kg", "value": "1350 ng/mL and 3490 ng/mL and 966 ng/mL"},
      {"measurement": "Drug plasma concentration, Average", "setting": "[2]; [4]", "value": "50017^^ ng/mL"},
      {"measurement": "Drug plasma concentration, individual mice", "setting": "[2]; [4]", "value": "49100^^ ng/mL and 47600^^ ng/mL and 53350^^ ng/mL"},
      {"measurement": "Drug plasma concentration, individual mice", "setting": "[2]; 8 h, PO 200 mg/kg, no ABT, 200 mg/kg", "value": "67.6 ng/mL and 22.3 ng/mL and 100 ng/mL"},
      {"measurement": "Drug plasma concentration, individual mice", "setting": "[2]; 12 h, PO 200 mg/kg, no ABT, 200 mg/kg", "value": "2.10 ng/mL and 1.19 ng/mL"},
      {"measurement": "Drug plasma concentration, individual mice", "setting": "[2]; 24 h, PO 200 mg/kg, no ABT", "value": "BQL"},
      {"measurement": "% AUC Extrap", "setting": "[2]; female Balb/c mice, single oral dose 200 mg/kg, no ABT", "value": 0.00, "unit": "%"},
      {"measurement": "concentration at 0.5 h", "setting": "[2]; female, Balb/c, mouse, in vivo, 0.5 h, PO 200 mg/kg + 100 mg/kg ABT, read-out: Drug plasma concentration, Average", "value": 21.7, "unit": "µg/mL"},
      {"measurement": "concentration at 0.5 h", "setting": "[2]; female, Balb/c, mouse, in vivo, 0.5 h, PO 200 mg/kg + 100 mg/kg ABT, read-out: Drug plasma concentration, individual mice", "value": 23.3, "unit": "µg/mL"},
      {"measurement": "concentration at 2 h", "setting": "[2]; female, Balb/c, mouse, in vivo, 2 h, PO 200 mg/kg + 100 mg/kg ABT, read-out: Drug plasma concentration, Average", "value": 34.3, "unit": "µg/mL"},
      {"measurement": "concentration at 2 h", "setting": "[2]; female, Balb/c, mouse, in vivo, 2 h, PO 200 mg/kg + 100 mg/kg ABT, read-out: Drug plasma concentration, individual mice", "value": 29.8, "unit": "µg/mL"},
      {"measurement": "concentration at 4 h", "setting": "[2]; female, Balb/c, mouse, in vivo, 4 h, PO 200 mg/kg + 100 mg/kg ABT, read-out: Drug plasma concentration, Average", "value": 43.5, "unit": "µg/mL"},
      {"measurement": "concentration at 4 h", "setting": "[2]; female, Balb/c, mouse, in vivo, 4 h, PO 200 mg/kg + 100 mg/kg ABT, read-out: Drug plasma concentration, individual mice", "value": 48.2, "unit": "µg/mL"},
      {"measurement": "AUC(0-x)/Dose", "setting": "[2]; [5]", "value": 125, "unit": "ng·h/mL/mg/kg"},
      {"measurement": "AUC(0-∞)/Dose", "setting": "[2]; [5]", "value": 125, "unit": "ng·h/mL/mg/kg"},
      {"measurement": "Cmax/Dose", "setting": "[2]; [5]", "value": 96, "unit": "ng/mL/mg/kg"},
      {"measurement": "concentration at 0.5 h", "setting": "[2]; female, Balb/c, mouse, in vivo, po, 200 mg/kg, 0.5 h, PO 200 mg/kg, no ABT, read-out: Drug plasma concentration, Average", "value": 19.2, "unit": "µg/mL"},
      {"measurement": "concentration at 0.5 h", "setting": "[2]; female, Balb/c, mouse, in vivo, po, 200 mg/kg, 0.5 h, PO 200 mg/kg, no ABT, read-out: Drug plasma concentration, individual mice", "value": 14.7, "unit": "µg/mL"},
      {"measurement": "concentration at 2 h", "setting": "[2]; female, Balb/c, mouse, in vivo, po, 200 mg/kg, 2 h, PO 200 mg/kg, no ABT, read-out: Drug plasma concentration, Average", "value": 5.19, "unit": "µg/mL"},
      {"measurement": "concentration at 4 h", "setting": "[2]; female, Balb/c, mouse, in vivo, po, 200 mg/kg, 4 h, PO 200 mg/kg, no ABT, read-out: Drug plasma concentration, Average", "value": 1.94, "unit": "µg/mL"},
      {"measurement": "concentration at 8 h", "setting": "[2]; female, Balb/c, mouse, in vivo, po, 200 mg/kg, 8 h, PO 200 mg/kg, no ABT, read-out: Drug plasma concentration, Average", "value": 0.063, "unit": "µg/mL"},
      {"measurement": "concentration at 12 h", "setting": "[2]; female, Balb/c, mouse, in vivo, po, 200 mg/kg, 12 h, PO 200 mg/kg, no ABT, read-out: Drug plasma concentration, Average", "value": 0.002, "unit": "µg/mL"},
      {"measurement": "concentration at 12 h", "setting": "[2]; female, Balb/c, mouse, in vivo, po, 200 mg/kg, 12 h, PO 200 mg/kg, no ABT, read-out: Drug plasma concentration, individual mice", "value": 0.002, "unit": "µg/mL"},
      {"measurement": "Cmax", "setting": "[2]; mouse, in vivo, female Balb/c mice, single oral dose 200 mg/kg, ABT 100 mg/kg PO 2 h before, manually added from the TA concentration data", "value": 48.4, "unit": "µg/mL"},
      {"measurement": "AUC(0-inf)", "setting": "[2]; [6]", "value": 25, "unit": "µg·h/mL"},
      {"measurement": "Cmax", "setting": "[2]; [6]", "value": 19.2, "unit": "µg/mL"},
      {"measurement": "Tmax", "setting": "[2]; [6]", "value": 60, "unit": "min"},
      {"measurement": "half-life", "setting": "[2]; [6]", "value": 47.4, "unit": "min"},
      {"measurement": "AUC", "setting": "[2]; mouse, in vivo, female Balb/c mice, single oral dose 200 mg/kg, no ABT, read-out: AUC(0-x)", "value": 25, "unit": "µg·h/mL"},
      {"measurement": "CFU drop (bacteriostatic activity)", "setting": "[3]; 100 mg/kg + ABT 100 mg/kg", "value": "< 1", "unit": "log CFU"},
      {"measurement": "Mouse survival", "setting": "[3]; 100 mg/kg + ABT 100 mg/kg", "value": 100, "unit": "%"},
      {"measurement": "CFU drop (bacteriostatic activity)", "setting": "[3]; 200 mg/kg", "value": "< 1", "unit": "log CFU"},
      {"measurement": "Mouse survival", "setting": "[3]; 200 mg/kg", "value": 100, "unit": "%"},
      {"measurement": "Spleen, gross necropsy observation", "setting": "[3]; Group 3, ND-012101 + ABT", "value": "Slightly enlarged"},
      {"measurement": "Spleen, gross necropsy observation", "setting": "[3]; Group 6, ND-012101 alone", "value": "Slightly enlarged; also recorded: normal"},
      {"measurement": "Lung Log10 CFU ± SEM", "setting": "[3]; ND-012101 (100) + ABT (100)", "value": "5.62 ± 0.06", "unit": "Log10 CFU"},
      {"measurement": "Spleen Log10 CFU ± SEM", "setting": "[3]; ND-012101 (100) + ABT (100)", "value": "4.80 ± 0.14", "unit": "Log10 CFU"},
      {"measurement": "Lung Log10 CFU ± SEM", "setting": "[3]; ND-012101 (200)", "value": "5.93 ± 0.08", "unit": "Log10 CFU"},
      {"measurement": "Spleen Log10 CFU ± SEM", "setting": "[3]; ND-012101 (200)", "value": "5.02 ± 0.08", "unit": "Log10 CFU"},
      {"measurement": "Log reduction vs CTL (Lg)", "setting": "[3]; ND-012101 (100) + ABT (100)", "value": 0.17},
      {"measurement": "Log reduction vs CTL (Lg)", "setting": "[3]; ND-012101 (200)", "value": "−0.14"},
      {"measurement": "Log reduction vs CTL (Sp)", "setting": "[3]; ND-012101 (100) + ABT (100)", "value": 0.20},
      {"measurement": "Log reduction vs CTL (Sp)", "setting": "[3]; ND-012101 (200)", "value": "−0.02"}
    ]}
  ]
}
